Experimental data: patent publication US9074163B2, “Targeted performance of hypohalite systems thereof” (The Clorox Company, priority 2012, dated 2015)

Experiment: percentage initial hypochlorite remaining as a function of time after mixing oxidant with reductant
Type: physicochemical
Conditions: any pH below 12
Description: The amount of available halogen oxidant in the composition may be determined by placing samples of the composition into about 50 milliliters of distilled water, followed by addition of about 10 milliliters of a 10 wt % solution of potassium iodide and addition of about 10 milliliters of a 10 volume % solution of sulfuric acid, the resulting mixture being well stirred. The resulting yellow to brown solution, whose color is the result of oxidation of free iodine ion (I′) to molecular iodine (I2), is then volumetrically titrated to an essentially colorless endpoint by addition of standardized 0.1 Molar sodium thiosulfate (Na2S2O3) titrant. […] Stability results are then expressed by repeated assays over time using identically prepared samples resulting from the same composition, normalized to 100 percent representative of the starting available chlorine measured initially.
Alternatively, at lower concentrations of hypochlorite, generally below about 2,000 ppm or 0.2 wt %, spectroscopic measurement of the absorption of aqueous solutions may be used to monitor the concentration, and resulting changes, of the hypochlorous acid species in solution. […] By use of controls, the relative level of hypochlorite can then be monitored and calculated by measuring absorbance of solutions by means of a suitable instrument, such as a spectrophotometer. […]

## O=C(O)CN(CCN(CC(=O)O)CC(=O)O)CC(=O)O [EDTA, ethylene diamine tetra-acetic acid]
  reaction of reductant with hypochlorite (quenching rate): reacts almost instantly
